Experimental data published in patent US10441681B2, “Materials and methods for nerve grafting” (University of Florida Research Foundation, Inc., priority 2001, dated 2019).

What was measured:
rat sciatic nerve [1] = experiment: Human-to-rat acellular nerve xenograft model (GAP-43 axonal profiles); format: in vivo; details: 8-day acellular human nerve grafts in rat, 2 host rats
Method: In the following experiments, the hypothesis that chondroitinase treatment improves nerve regeneration through acellular human nerve grafts in a rat xenograft model was tested. Subunits (individual fascicles) taken from human nerves were treated en bloc with vehicle or chondroitinase ABC. Ten-mm interpositional nerve grafts were joined to the rat host sciatic nerve by epineurial neurorrhaphy reinforced with fibrin glue. Each of 2 host rats received bilateral grafts, one vehicle-treated and one chondroitinase-treated graft. Regeneration was initially examined after 8 days. Axonal growth was assessed at specified spatial intervals within the graft by scoring GAP-43-immunopositive profiles in transverse sections.

CSPG = CSPG neoepitope (Ab1918) immunolabeling of acellular rat sciatic nerve segments treated en bloc; details: acellular rat sciatic nerve segments bathed en bloc in chondroitinase ABC solution for 16 hours
Text: Adult (180-200 g) female SPRAGUE DAWLEY rats (HARLAN, Indianapolis, Ind.) were used as nerve donors and recipient hosts. Donor rats were anesthetized with halothane and decapitated. Sciatic nerves were exposed through a gluteal muscle-splitting incision and isolated free of underlying fascia. A 15-mm nerve segment was excised rostral to the bifurcation into common peroneal and tibial nerves. The segments were rinsed with cold sterile Ringer's solution, stabilized by pinning the ends to a thin plastic support, and transferred to a cryogenic vial. The vials were submerged in liquid nitrogen for 2 minutes and then transferred to a 37° C. water bath for 2 minutes. This freeze/thaw cycle was repeated, yielding acellular nerve grafts that were then stored in liquid nitrogen. On the day before grafting, the nerve grafts were warmed to room temperature and incubated in 100 μl phosphate buffered saline pH 7.4 (PBS) containing 2 units/ml chondroitinase ABC (SIGMA, St. Louis, Mo.) or in PBS (vehicle) only for 16 hours at 37° C. The grafts were rinsed twice with Ringer's and kept on ice prior to use. The chondroitinase ABC preparation was highly purified and stated by the manufacturer to be essentially free of protease activity.
Axonal regeneration was assessed by GAP-43 immunofluorescence and digital image analysis. […]

rat sciatic nerve [2] = experiment: Axonal regeneration after sciatic nerve transection (neurotmesis) and neurorrhaphic repair; format: in vivo
Method: All surgical procedures were performed according to Institutional Animal Care and Use Committee (IACUC) approved protocols. Young adult SPRAGUE DAWLEY rats (HARLAN Indianapolis, Ind.) were deeply anesthetized with xylazine (15 mg/kg, i.m.) followed by ketamine-HCl (110 mg/kg, i.p.). Six animals received bilateral nerve crush injuries. Sciatic nerves were exposed and then crushed with firm pressure for thirty seconds with a DUMONT #5 forceps at a site 4 mm distal to the tendon of the internal obdurator. The crush site was marked with an epineurial suture. In a separate set of experiments, eight rats received bilateral sciatic nerve transection injuries using serrated scissors. The proximal and distal stumps were coated by epineurial neurorrhaphy using 9-0 ETHILON sutures. Fibrin glue (fibrinogen and thrombin) was then applied to stabilize the union. In both injury models, the right sciatic nerves were injected 2-mm distal to the injury with chondroitinase ABC (1 U in 2 μl) (high-purity, protease-free; SIGMA CHEMICAL CO., St. Louis, […].). Left sciatic nerves (with the same injury as the right side) were injected with vehicle alone (0.1% bovine serum albumin in PBS). Muscle incisions were sutured and the skin closed with metal clips. After recovery from the anesthetic, animals were returned to standard housing. Two days (for crush injury) and four days (for transection injury) after surgery, nerves were removed under anesthesia and fixed as described below. One of the eight animals receiving nerve transection and repair was excluded because loss of continuity in one nerve occurred during convalescence.
The hypothesis that chondroitinase treatment improves axonal growth through the site of nerve coaptation was tested. Bilateral neurotmesis was achieved by a scissor cut of the sciatic nerves which were then repaired by epineurial suture and fibrin glue. One nerve was injected with chondroitinase ABC and the contralateral nerve received vehicle alone. Because of the latency of regeneration after nerve transection, axonal growth across the coaptation was examined four days after injury. In control nerves, the ingress of axons occurred mainly in patches and was limited to discrete subsections of the distal nerve; otherwise only a few axons were found scattered throughout the remaining nerve cross-section, as shown in FIG. 14A. The number of axons extending farther into the distal (after 4 days) rapidly diminished and approached zero within 3 mm from the coaptation. In contrast, axon ingress into chondroitinase-treated nerves was more robust and widespread throughout the entire nerve cross-section. In 7/7 animals, the number of axons that entered the distal nerve was greater in the chondroitinase-treated nerve than in the control nerve. […]

Question: How did the “average number of axons (GAP-43-immunopositive profiles) entering grafts vs control grafts” value (rat sciatic nerve [1]) turn out when chondroitinase ABC was run?
Answer: more than three-fold greater

Question: What about the “CSPG degradation (Ab1918 neoepitope immunostaining)” value (CSPG) of the same substance?
Answer: thoroughly degraded CSPG side-chains

Question: What about the “propensity of axons to regrow within basal laminae of the distal nerve” value (rat sciatic nerve [2]; GAP-43/laminin double-immunolabeling) of the same substance?
Answer: unaltered

Question: And the “animals in which the number of axons entering the distal nerve was greater than in the control nerve” value (rat sciatic nerve [2]; four days after injury)?
Answer: 7/7

Question: What about the “score of axons immediately distal to the coaptation vs control nerves” value (rat sciatic nerve [2]; four days after transection and repair, 1 U in 2 μl injected, n=7) of the same substance?
Answer: two-fold greater

Question: What about the “animals with increases greater than 3.5-fold” value (rat sciatic nerve [2]; score of axons immediately distal to the coaptation, four days) of the same substance?
Answer: 3/7
